Measurements as given in ChEMBL document CHEMBL5385891, “Design and discovery of novel dipeptide boronic acid ester proteasome inhibitors, an oral slowly-released prodrug for the treatment of multiple myeloma” (Eur J Med Chem, 2023).

How the values were obtained:
[1] = tested on: RPMI-8226; assay: Cytotoxicity against human RPMI-8226 cells assessed as inhibition of cell proliferation incubated for 72 hrs by Cell Titer-Glo luminescence assay; format: functional, cell-based; settings: RPMI-8226, 72 h
[2] = target: 20S proteasome; assay: Inhibition of human 20S proteasome chymotrypsin-like activity using Suc-Leu-Leu-Val-Tyr-AMC as fluorogenic peptide pre-incubated for 10 mins with compound followed by substrate addition for 60 mins by spectrofluorimetric analysis; format: protein-complex assay
[3] = Stability of the compound in stimulated […] fluid at pH 1.2 measured after 4 hrs; format: ADME; settings: simulated gi fluid, pH 1.2, 4 h
[4] = Stability of the compound in stimulated […] fluid at pH 6.8 measured after 12 hrs; format: ADME; settings: simulated intestinal fluid, read-out: Stability
[5] = Stability of the compound in stimulated […] fluid at pH 1.2 measured after 1 min; format: ADME; settings: simulated gi fluid, pH 1.2, 1 min
[6] = Half life in monkey liver microsomes at 1 uM incubated for 2 to 60 mins in presence of NADPH by LC-MS/MS analysis; format: ADME, Macaca mulatta, Microsome; settings: rhesus monkey, time 2-60 min
[7] = Intrinsic clearance in mouse liver microsomes at 1 uM incubated for 2 to 60 mins in presence of NADPH by LC-MS/MS analysis; format: ADME, Microsome; settings: time 2-60 min, read-out: CLH
[8] = Intrinsic clearance in human liver microsomes at 1 uM incubated for 2 to 60 mins in presence of NADPH by LC-MS/MS analysis; format: ADME, Microsome; settings: time 2-60 min, read-out: CLH
[9] = Half life in Sprague-Dawley rat at 1.2 mg/kg,IG measured upto 24 hrs by LC-MS/MS analysis; format: ADME, organism-based; settings: in vivo, po
[10] = AUC(0-t) in Sprague-Dawley rat at 1.2 mg/kg,IG measured upto 24 hrs by LC-MS/MS analysis; format: ADME, organism-based; design: dose 1.2 mg/kg, time < 24 hrs, route ig; settings: in vivo, po
[11] = Stability of the compound in stimulated […] fluid at pH 6.8 measured after 8 hrs; format: ADME; settings: simulated intestinal fluid, read-out: Stability
[12] = AUC (0-t) in Sprague-Dawley rat at 0.4 mg/kg,iv measured upto 24 hrs by LC-MS/MS analysis; format: ADME, organism-based; design: time < 24 hrs, dose 0.4 mg/kg, route iv; settings: in vivo
[13] = Half life in rat liver microsomes at 1 uM incubated for 2 to 60 mins in presence of NADPH by LC-MS/MS analysis; format: ADME, Microsome; settings: time 2-60 min
[14] = Half life in Sprague-Dawley rat at 0.4 mg/kg,iv measured upto 24 hrs by LC-MS/MS analysis; format: ADME, organism-based; settings: in vivo
[15] = Stability of the compound in stimulated […] fluid at pH 6.8 measured after 4 hrs; format: ADME; settings: simulated intestinal fluid, read-out: Stability
[16] = Intrinsic clearance in dog liver microsomes at 1 uM incubated for 2 to 60 mins in presence of NADPH by LC-MS/MS analysis; format: ADME, Canis lupus familiaris, Microsome; settings: time 2-60 min, read-out: CLH
[17] = Intrinsic clearance in rat liver microsomes at 1 uM incubated for 2 to 60 mins in presence of NADPH by LC-MS/MS analysis; format: ADME, Microsome; settings: time 2-60 min, read-out: CLH
[18] = Half life in dog liver microsomes at 1 uM incubated for 2 to 60 mins in presence of NADPH by LC-MS/MS analysis; format: ADME, Canis lupus familiaris, Microsome; settings: time 2-60 min
[19] = Cmax in Sprague-Dawley rat at 1.2 mg/kg,IG measured upto 24 hrs by LC-MS/MS analysis; format: ADME, organism-based; design: time < 24 hrs, dose 1.2 mg/kg, route ig; settings: in vivo, po
[20] = Intrinsic clearance in monkey liver microsomes at 1 uM incubated for 2 to 60 mins in presence of NADPH by LC-MS/MS analysis; format: ADME, Macaca mulatta, Microsome; settings: rhesus monkey, time 2-60 min, read-out: CLH
[21] = Tmax in Sprague-Dawley rat at 1.2 mg/kg,IG measured upto 24 hrs by LC-MS/MS analysis; format: ADME, organism-based; settings: in vivo, po
[22] = Stability of the compound in stimulated […] fluid at pH 6.8 measured after 2 hrs; format: ADME; settings: simulated intestinal fluid, read-out: Stability
[23] = Stability of the compound in stimulated […] fluid at pH 1.2 measured after 12 hrs; format: ADME; settings: simulated gi fluid, pH 1.2, 12 h
[24] = Half life in human liver microsomes at 1 uM incubated for 2 to 60 mins in presence of NADPH by LC-MS/MS analysis; format: ADME, Microsome; settings: time 2-60 min
[25] = Stability of the compound in stimulated […] fluid at pH 1.2 measured after 2 hrs; format: ADME; settings: simulated gi fluid, pH 1.2, 2 h
[26] = Half life in mouse liver microsomes at 1 uM incubated for 2 to 60 mins in presence of NADPH by LC-MS/MS analysis; format: ADME, Microsome; settings: time 2-60 min
[27] = Stability of the compound in stimulated […] fluid at pH 1.2 measured after 8 hrs; format: ADME; settings: simulated gi fluid, pH 1.2, 8 h
[28] = Oral bioavailability in Sprague-Dawley rat at 1.2 mg/kg measured upto 24 hrs by LC-MS/MS analysis; format: ADME, organism-based; settings: in vivo
[29] = Stability of the compound in stimulated […] fluid at pH 6.8 measured after 1 min; format: ADME; settings: simulated intestinal fluid, read-out: Stability
[30] = Toxicity in Balb/c mouse xenografted with human RPMI-8226 cells assessed as body weight loss at 6 mg/kg,po administrated biweekly for 21 days; format: organism-based; settings: in vivo, 504 h, time 21 day
[31] = tested on: RPMI-8226; assay: Antitumor activity against human RPMI-8226 cells xenografted in Balb/c mouse assessed as tumor growth inhibition at po administration biweekly for 21 days; format: functional, organism-based; settings: time 21.0 day
[32] = Toxicity in Balb/c mouse xenografted with human RPMI-8226 cells assessed as body weight loss at 10 mg/kg,po administrated biweekly for 21 days; format: organism-based; settings: in vivo, 504 h, time 21 day

Structure (SMILES)	IC50 [1] [nM]	IC50 [2] [nM]	Stability [3] [%]	remaining at 12 h [4] [%]	Stability [5] [%]	remaining at 8 h [11] [%]	remaining at 4 h [15] [%]	remaining at 2 h [22] [%]	Stability [23] [%]	Stability [25] [%]	Stability [27] [%]	remaining at 1 min [29] [%]	also measured
CC(C)C[C@H](NC(=O)CNC(=O)c1cc(Br)ccc1Br)B(O)O	14.7	4	–	–	–	–	–	–	–	–	–	–	–
CC(C)C[C@H](NC(=O)C1(NC(=O)c2cc(C(F)(F)F)ccc2C(F)(F)F)CCCC1)B(O)O	–	285	–	–	–	–	–	–	–	–	–	–	–
CC(C)C[C@H](NC(=O)C(NC(=O)c1cc(C(F)(F)F)ccc1C(F)(F)F)C1CC1)B1OC2C3OC(CC3C(=O)O)C2(C)O1 (stereo partly specified)	2.9	2.7	57.32	5.76	5.35	3.93	2.68	2.82	58.73	56.83	58.67	2.35	half-life at 1 µM [6]: 38.9 min; microsomal CLint at 1 µM [7]: 37.8 µL/min/mg; microsomal CLint at 1 µM [8]: 20.8 µL/min/mg; half-life [9]: 718 min; AUC(0-t) at 24 h [10]: 126 ng·h/mL; AUC(0-t) at 24 h [12]: 323 ng·h/mL; half-life at 1 µM [13]: 24.9 min; half-life [14]: 1450 min; microsomal CLint at 1 µM [16]: 16.4 µL/min/mg; microsomal CLint at 1 µM [17]: 55.6 µL/min/mg; half-life at 1 µM [18]: 84.5 min; Cmax [19]: 46.5 ng/mL; microsomal CLint at 1 µM [20]: 35.6 µL/min/mg; Tmax [21]: 10.2 min; half-life at 1 µM [24]: 66.6 min; half-life at 1 µM [26]: 36.7 min; bioavailability [28]: 9.8%
CC(C)C[C@H](NC(=O)CNC(=O)c1cc(Cl)ccc1Cl)B1OC2C3OC(C4C(=O)NC(=O)C34)C2(C)O1 (stereo partly specified)	6.8	22.4	70.5	10.8	70.91	13.5	11.4	11.4	66.9	67.8	66.14	15	–
CC(C)C[C@H](NC(=O)CNC(=O)c1cc(Cl)ccc1Cl)B(O)O [IXAZOMIB]	7.4	–	100	100	100	100	100	100	100	100	100	12.6	Activity [30]: Non-Toxic; Activity [31]: Dose-Dependent Effect; Activity [32]: Non-Toxic
Cc1cc(C(=O)NCC(=O)N[C@@H](CC(C)C)B(O)O)no1	–	124	–	–	–	–	–	–	–	–	–	–	–
CC(C)C[C@H](NC(=O)CNC(=O)c1cc(Cl)ccc1Cl)B1OC2(C)CCC(C(=O)O)CC2(C)O1 (stereo partly specified)	5.3	9.6	97.62	78.7	62.06	85.7	91.5	83.7	96.98	98.08	98.81	90.1	–
CC(C)C[C@H](NC(=O)C1(NC(=O)c2cc(C(F)(F)F)ccc2C(F)(F)F)CC1)B(O)O	–	86.7	–	–	–	–	–	–	–	–	–	–	–
CC(C)C[C@H](NC(=O)CNC(=O)c1cc(Cl)ccc1Cl)B1OC2(C)CC3C(=O)NC(=O)C3CC2(C)O1 (stereo partly specified)	7.5	8.4	53.78	7.27	53.28	6.91	9.23	7.58	38.47	51.59	41.57	5.4	–
CC(C)C[C@H](NC(=O)C(NC(=O)c1cc(C(F)(F)F)ccc1C(F)(F)F)C1CCCC1)B1OC2C3OC(CC3C(=O)O)C2(C)O1 (stereo partly specified)	13.6	2.4	–	–	–	–	–	–	–	–	–	–	–
